Laboratory results reported in PubChem BioAssay (NCI).
Where “and” joins values, the source holds several entries; their conditions need not be identical. Identical values can stand only once.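 Protocol summary: plate cells (96-well), add compound at 5 concentrations, incubate 48 h, interpolate endpoints linearly. At the GI50, growth is halved. The concentration for full growth arrest is given as TGI.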

What was measured:
Assay in all cases: DTP human tumour cell line panel, 48 h
[1] = system: CCRF-CEM leukemia
[2] = system: RXF 393 renal
[3] = system: HCT-15 colon
[4] = system: OVCAR-3 ovarian
[5] = system: SNB-19 CNS
[6] = system: SF-539 CNS
[7] = system: NCI-H226 lung
[8] = system: SNB-75 CNS
[9] = system: CAKI-1 renal
[10] = system: IGROV1 ovarian

Row | Compound | GI50 [1] | TGI [1] | GI50 [2] | TGI [2] | GI50 [3] | TGI [3] | GI50 [4] | TGI [4] | GI50 [5] | TGI [5] | GI50 [6] | TGI [6] | GI50 [7] | TGI [7] | GI50 [8] | TGI [8] | GI50 [9] | TGI [9] | GI50 [10] | TGI [10]
1 | C=CCc1c(O)c(C(=O)/C=C/c2ccccc2)c(OC)c2ccoc12 | 2.75 µM | > 100 µM | 1.85 µM | 5.62 µM | 2910 nM | 11.8 µM | 2.46 µM | 7.06 µM | 2.85 µM | 10.7 µM | 1.71 µM | 3.93 µM | 1.48 µM | 3.21 µM | 1.39 µM | 6.76 µM | 2.8 µM | 11 µM | 3.35 µM | 11.6 µM
2 | O=C(O)Cc1cccc2c(=O)c3cccc([N+](=O)[O-])c3oc12 | – | > 100 µM | – | > 100 µM | – | > 100 µM | – | > 100 µM | – | > 100 µM | – | > 100 µM | – | > 100 µM | – | > 100 µM | – | > 100 µM | – | > 100 µM
3 | COc1ccc(OC)c(/C=C/c2nc(SCc3ccccc3)n(-c3ccc(Cl)cc3)n2)c1 | 4.11 µM | > 100 µM | 26.6 µM | > 100 µM | 5010 nM | > 100 µM | 3.54 µM | 12 µM | 14.3 µM | > 100 µM | 4.25 µM | > 100 µM | 27.8 µM | > 100 µM | 3.92 µM | > 100 µM | 2.09 µM | 5.28 µM | 13.1 µM | > 100 µM
4 | C/C(=N/N=C(N)N)c1ccc(NC(=O)Nc2ccc(/C(C)=N/N=C(N)N)cc2)cc1 | 21.7 µM | 97.8 µM | 20.3 µM | 42.4 µM | 25500 nM | > 77.6 µM | 18.6 µM | > 61.6 µM | 19.6 µM | 45 µM | 17.9 µM | 36.1 µM | 25 µM | > 94.6 µM | 17.6 µM | 38.1 µM | 22.4 µM | > 100 µM | 7.47 µM | 23.9 µM
5 | CCc1cccc(C)c1NC(=S)NC(=O)c1ccccc1C(=O)NC(=S)Nc1c(C)cccc1CC | – | > 100 µM | – | > 100 µM | – | > 100 µM | – | 80.9 µM | – | > 100 µM | – | > 100 µM | – | > 100 µM | – | > 100 µM | – | > 100 µM | – | > 100 µM
6 | Cc1ccc(OCC2OC(n3cnc4c(Br)nc(Br)nc43)CC2Oc2ccc(C)cc2)cc1 (stereo unspecified) | 1.8 µM | 3.44 µM and > 25.5 µM | 13.3 µM | 28.2 µM and 22.4 µM | 1450 nM | 3.24 µM and 4.73 µM | 3.77 µM | 14.3 µM and 19.1 µM | 11.8 µM | 22.9 µM and 17.8 µM | 0.466 µM | 10.2 µM and 15.6 µM | 1.63 µM | 33 µM and 3.77 µM | 8.32 µM | 18.3 µM and 9.29 µM | 1.2 µM | 2.26 µM and 4.03 µM | 2.71 µM | 8.86 µM and 9.89 µM
7 | CN(C)CCNC(=O)NC[C@H]1CC[C@@H]2[C@H](O1)c1cc(C(F)(F)F)ccc1N[C@H]2c1ccccc1 | 0.137 µM | 3.85 µM | 0.249 µM | 18.4 µM | 1020 nM | 16.5 µM | 0.264 µM | 10.3 µM | 0.624 µM | > 100 µM | 0.187 µM | 8.31 µM | 15.1 µM | 43.4 µM | 0.32 µM | 23.4 µM | 4.74 µM | > 68.2 µM | 0.578 µM | 40.7 µM
8 | COc1cccc2c1C(=O)c1c(O)c3c(c(O)c1C2=O)CC(O)(C(=O)CO)CC3OC1CC(N)C(O)C(C)O1 (stereo unspecified) | 0.801 µg/mL and 4.97 µg/mL | – | 13.3 µg/mL and > 150 µg/mL | 75 µg/mL and > 150 µg/mL | 75 µg/mL and > 150 µg/mL | 75 µg/mL and > 150 µg/mL | 22.6 µg/mL and 35.8 µg/mL | 75 µg/mL and > 150 µg/mL | 2.04 µg/mL and 54.6 µg/mL | 75 µg/mL and > 150 µg/mL | 38.3 µg/mL and 18.8 µg/mL | 75 µg/mL and 94.8 µg/mL | 1.75 µg/mL and 7.36 µg/mL | 12.6 µg/mL and 28.5 µg/mL | 9.12 µg/mL and 51.1 µg/mL | 55 µg/mL and > 150 µg/mL | 16.3 µg/mL and 64 µg/mL | 75 µg/mL and > 150 µg/mL | 16.1 µg/mL and 60.1 µg/mL | 75 µg/mL and > 150 µg/mL
9 | CN(C)c1ccc(N=C2C=CC(=O)c3ccccc32)cc1 | 2.13 µM | 6.17 µM | 3.2 µM | 14.5 µM | 2360 nM | 17.7 µM | 1.28 µM | 3.08 µM | 3.42 µM | 13.9 µM | 3.11 µM | 11.4 µM | 18.2 µM | 54 µM | 1.8 µM | 4.86 µM | 3.58 µM | 16.3 µM | 2.76 µM | 9.28 µM
10 | O=C1C2C3C=CC(C2C(=O)N1CN1CCSCC1)C1C2C(=O)N(CN4CCSCC4)C(=O)C2C31 (stereo unspecified) | 35.1 µM | > 100 µM | – | > 100 µM | – | > 59.7 µM | – | > 100 µM | – | > 100 µM | – | > 100 µM | – | > 100 µM | 38.6 µM | > 93 µM | – | > 100 µM | – | > 100 µM
11 | CSc1ccc(C(=O)/C=C/c2ccccc2Cl)cc1 | 19.6 µM | > 100 µM | 4.23 µM | 16.4 µM | 7730 nM | 28.9 µM | 8.98 µM | 21.9 µM | 26.5 µM | 61.2 µM | 16.5 µM | 33.1 µM | 15.8 µM | 37.6 µM | 22.2 µM | 45.2 µM | 15.4 µM | 30.7 µM | 4.56 µM | 17 µM
